Experimental findings from EP4741383A1, “COMPOUND AND USE THEREOF AS ANTI-CANCER DRUG” (Tyligand Bioscience (Shanghai) Limited, priority 2023, dated 2025) are described below.

Assay [1] deals with T1, SHP2 enzyme (catalytic domain, amino acid sequence 224-528) (Homo sapiens, UniProt Q06124).
T1 construct: purchased GenScript
T1 sequence (Q06124 224-528): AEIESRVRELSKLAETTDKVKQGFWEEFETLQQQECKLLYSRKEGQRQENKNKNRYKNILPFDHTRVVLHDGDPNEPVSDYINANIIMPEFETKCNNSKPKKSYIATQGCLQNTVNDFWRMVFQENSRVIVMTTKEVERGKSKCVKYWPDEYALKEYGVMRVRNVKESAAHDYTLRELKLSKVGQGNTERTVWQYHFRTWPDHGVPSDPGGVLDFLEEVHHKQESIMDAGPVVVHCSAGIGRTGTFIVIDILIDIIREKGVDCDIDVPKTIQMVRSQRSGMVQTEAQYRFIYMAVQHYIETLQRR
Description: SHP2 enzyme inhibition assay (DiFMUP substrate, fluorescence). The class given is biochemical. The settings on record: for IC50: SHP2 catalytic domain, DiFMUP substrate, 30 min pre-incubation, read-out: S HP2 I C50; for SHP2 IC50 times lower than control compound 11a-1: relative to 11a-1, IC50 = 0.108 µM. As to the method:
This experiment evaluates the inhibitory effect of the test compounds on SHP2 enzyme activity by detecting the reaction between the human recombinant protein SHP2 enzyme and the substrate.
The stock solutions of the reaction buffer components were thawed and mixed homogeneously at room temperature, to prepare the reaction buffer (55 mM HEPES pH = 7.2 (Sigma, Cat. No. #PHR1428), 100 mM NaCl (Beyotime, Cat. No. #ST374, 5 M solution), 0.5 mM EDTA (Beyotime, Cat. No. #ST066), 1 mM DL-Dithiothreitol (DTT) (Sigma, Cat. No. #D9779), 0.002% BSA (Solarbio, Cat. No. #A8010), 0.001% Brij35 (Brij® L23 solution (Brij35) (Sigma, Cat. No. #B4184)). The SHP2 enzyme (catalytic domain, amino acid sequence 224-528, expressed and purified by GenScript) was thawed slowly on ice. 1 µL of this solution (1.37 mg/mL) was added to 386 µL of the reaction buffer to dilute it to 100 nM. Then, 120 µL of the 100 nM SHP2 enzyme solution was added to 2880 µL of reaction buffer to prepare a 4 nM SHP2 enzyme working solution. The test compounds and the specific inhibitor of SHP2 (11a-1, used as a positive control, Zeng, L. et al., J. Med. Chem. 2014, 57, 6594-6609) were prepared as 10 mM DMSO solutions. 10 µL of the 10 mM compound solution was mixed with 20 µL of DMSO solution, and then serially diluted 3-fold, resulting in 10 concentrations. 1 µL of the serially diluted solution was mixed with 99 µL of reaction buffer to obtain a 10-fold diluted compound working solution.
A 96-well black half-area microplate (Greiner, catalog #675076) was used. 25 µL of 4 nM SHP2 enzyme working solution and 5 µL of 10x compound working solution were added to each well and incubated at room temperature for 30 minutes. 15 µL of DiFMUP substrate (Thermo Fisher Scientific, catalog #D6567) was added to 2985 µL of reaction buffer to prepare a 50 µM substrate working solution. After incubation of the compounds and SHP2 enzyme, 20 µL of the 50 µM substrate working solution was added to each well and incubated at room temperature for 5 minutes. The plate was then read on a multi-mode microplate reader (BioTek, Synergy H1) at 340 nm/450 nm fluorescence.
Data were analyzed using GraphPad Prism 9.0 software. A non-linear S-curve regression dose-response-inhibition equation was used to fit the data and generate the dose-response curve, from which the IC50 value was calculated. [formula]

The test system of the next assay is KYSE520. The assay can be described thus: CellTiter-Glo cell proliferation inhibition, KYSE520. The class given is cell-based, human. Conditions: Homo sapiens, KYSE-520; KYSE520 cells, 120 hours, CellTiter-Glo. From the text:
In this study, the CellTiter-Glo® Luminescent Cell Viability Assay kit from Promega was used to evaluate the inhibitory effects of the disclosed compounds on the proliferation of cell lines KYSE520 (a human esophageal squamous cell carcinoma cell line dependent on SHP2 for growth), MeWo (a human malignant melanoma cell line), and MV4-11 (an RTK-mutant human acute monocytic leukemia cell line).
KYSE520 cells (Nanjing Kebaio Biotechnology Co., Ltd., Catalog #CBP60658) were thawed by rapidly shaking the cryovial in a 37 °C water bath to thaw within 1 minute. The thawed cell suspension was mixed homogeneously with RPMI 1640 medium (HyClone, Catalog #SH30027.01) containing 10% FBS (ExCell, Catalog #FND500), centrifuged at 1000 rpm for 5 minutes, and the supernatant was discarded. The cell pellet was resuspended in 5 mL of complete culture medium (RPMI 1640 medium containing 10% FBS) and placed in a cell culture flask with 25 cm^2 of bottom area, then cultured in a cell culture incubator at 37 °C, 95% humidity, and 5% CO2. Cell passaging was performed when the cell confluence reached approximately 80%. During cell passaging, the old culture medium was discarded, the cells were washed once with DPBS (Thermo Fisher, Catalog #14190-144), and 1 mL of trypsin (Thermo Fisher, Catalog #25200072) was added to digest the cells. When the cells dispersed into single cells and detached from the bottom of the culture flask, 3 mL of fresh complete culture medium was added to stop the digestion. After gently pipetting the cell suspension, 1/5 of the cell suspension was retained, 5 mL of fresh complete culture medium was added, and after mixing, the cells were placed in a cell culture flask for further culture. Cell plating was performed when the cell confluence again reached approximately 80%. During cell plating, following the cell passaging method, 1/5 of the cell suspension was retained for continued culture, and the remaining 4/5 of the cell suspension was placed in a 15 mL centrifuge tube. Cell viability was determined using the trypan blue exclusion method to ensure that cell viability was above 90%. A cell suspension with a density of 2.22 × 10^4 cells/mL was prepared using complete culture medium, and 135 µL of the cell suspension was added to a 96-well transparent flat-bottom black-walled cell culture plate (Greiner, Catalog #655090), resulting in a cell density of 3000 viable cells per well. A control group containing only complete culture medium without cells and compounds (i.e., culture medium control) and a control group containing cells but no compound (i.e., cell control) were set up. The cell plates were incubated overnight in a cell culture incubator. First, a 10 mM stock solution of the compound (Example compound and positive control compound 11a-1) in DMSO (Damas-beta, catalog #75927R) was serially diluted 3-fold to the 9th concentration, and a 10th concentration containing only DMSO (without compound) was also prepared as a control. Then, the DMSO solutions containing different concentrations of the compound were diluted 100-fold with complete culture medium, resulting in a 1% DMSO concentration in each solution. Finally, 15 µL of each solution was added to the corresponding wells of the cell culture plate, resulting in a starting compound concentration of 10 µM, with a 3-fold dilution between adjacent concentrations, and a final DMSO concentration of 0.1% in the cell culture plate. The cell plates were then incubated in the cell culture incubator for another 120 hours.
For endpoint detection, CellTiter-Glo reagent (Promega, catalog number #G7573, CellTiter-Glo® Luminescent Cell Viability Assay Kit) was melt and each cell plate was moved to room temperature for equilibration for 30 minutes. 75 µL (KYSE520 cells) or 50 µL (MeWo cells and MV 4-11 cells) of CellTiter-Glo was added to each well of the corresponding cell plate. The plates were shaken on a track-mounted shaker for 2 minutes to fully lyse the cells. […]

As to `CC1(n2c(-c3ccc(NC(=O)C(=O)Nc4ccc(N5CCC6(CCC(CO)CC6)CC5)cc4)cc3)cc3cc(F)c(-c4nnn[nH]4)cc32)CCC1` [Example 113], the IC50 in assay [1] is 114 nM; in the assay on KYSE520, 0.116 µM.
The matching figures for `CC(C)(O)CC1CCN(c2ccc(NC(=O)C(=O)Nc3ccc(-c4cc5cc(F)c(-c6nnn[nH]6)cc5n4C4CCC4)cc3)cc2)CC1` [Example 27]: 111 nM and 0.17 µM.
The matching figures for `O=C(Nc1ccc(-c2cc3cc(F)c(-c4nnn[nH]4)cc3n2C2CCC2)cc1)C(=O)Nc1ccc(N2CC3CC(CO)CC3C2)cc1` (stereo not shown) [Example 119]: 55 nM and 0.105 µM.
On to `CC1(n2c(-c3ccc(NC(=O)C(=O)Nc4ccc(N5CCC6(CCC(O)C6)CC5)cc4)cc3)cc3cc(F)c(-c4nnn[nH]4)cc32)CC1` (stereo not shown) [Example 102], for which the IC50 in assay [1] turned out to be 49 nM; in the assay with KYSE520 it was 0.116 µM.
Consider `CC1(O)CC2(CCN(c3ccc(NC(=O)C(=O)Nc4ccc(-c5cc6cc(F)c(-c7nnn[nH]7)cc6n5C5CCC5)cc4)cc3)C2)C1` (stereo not shown) [Example 91], for which the IC50 was 93 nM in assay [1] and 0.101 µM in the assay on KYSE520.
For `CC1(n2c(-c3ccc(NC(=O)C(=O)Nc4ccc(N5CC[C@H](CO)C5)cc4)cc3)cc3cc(F)c(-c4nnn[nH]4)cc32)CCC1` [Example 13], the IC50 in assay [1] stood at 66 nM; in the assay on KYSE520, 0.182 µM.
With `CC1(n2c(-c3ccc(NC(=O)C(=O)Nc4ccc(N5CC6(CCC(CO)CC6)C5)cc4)cc3)cc3cc(F)c(-c4nnn[nH]4)cc32)CCC1` [Example 86], the IC50 in assay [1] was 64 nM; in the assay on KYSE520 it was 0.158 µM.
On to `O=C(Nc1ccc(-c2cc3cc(F)c(-c4nnn[nH]4)cc3n2C2CCC2)cc1)C(=O)Nc1ccc(N2CCC(C(O)C(F)(F)F)CC2)cc1` (stereo not shown) [Example 32], for which the IC50 in assay [1] stood at 61 nM; with KYSE520 it was 0.182 µM.
As for `CC(C)(O)C1CC2(CCN(c3ccc(NC(=O)C(=O)Nc4ccc(-c5cc6cc(F)c(-c7nnn[nH]7)cc6n5C5CCC5)cc4)cc3)CC2)C1` [Example 98], the IC50 in assay [1] is 83 nM; with KYSE520, 0.195 µM.
The matching figures for `CC(C)(O)C1CC2(CCN(c3ccc(NC(=O)C(=O)Nc4ccc(-c5cc6cc(F)c(-c7nnn[nH]7)cc6n5C5(C)CCC5)cc4)cc3)CC2)C1` [Example 99]: 77 nM and 0.17 µM.
The matching figures for `CC1(n2c(-c3ccc(NC(=O)C(=O)Nc4ccc(N5CCC6(CCC(CO)C6)CC5)cc4)cc3)cc3cc(F)c(-c4nnn[nH]4)cc32)CCC1` (stereo not shown) [Example 107]: 138 nM and 0.101 µM.
In the case of `CC(C)(O)C1CCN(c2ccc(NC(=O)C(=O)Nc3ccc(-c4cc5cc(F)c(-c6nnn[nH]6)cc5n4CC4CCC4)cc3)cc2)CC1` [Example 38], in assay [1], the IC50 was determined as 112 nM.
For the compound `CC1(O)CCC2(CC1)CN(c1ccc(NC(=O)C(=O)Nc3ccc(-c4cc5cc(F)c(-c6nnn[nH]6)cc5n4C4(C)CCC4)cc3)cc1)C2` [Example 84], in assay [1], the IC50 was 60 nM.
Same read-out and setting: to `CC1(C)CN(c2ccc(NC(=O)C(=O)Nc3ccc(-c4cc5cc(F)c(-c6nnn[nH]6)cc5n4C4CCC4)cc3)cc2)CC1CO` (stereo not shown) [Example 19] belongs 152 nM.
The same measure, in the same setting: the result for `CC(C)(O)CCC1CCN(c2ccc(NC(=O)C(=O)Nc3ccc(-c4cc5cc(F)c(-c6nnn[nH]6)cc5n4C4CCC4)cc3)cc2)CC1` [Example 28] reads 92 nM; that for `CC1(O)CCC2(CCN(c3ccc(NC(=O)C(=O)Nc4ccc(-c5cc6cc(F)c(-c7nnn[nH]7)cc6n5C5(C)CCC5)cc4)cc3)CC2)C1` (stereo not shown) [Example 105], 86 nM.
On the same count and under the same terms, the result for `O=C(Nc1ccc(-c2cc3cc(F)c(-c4nnn[nH]4)cc3n2C2CCC2)cc1)C(=O)Nc1ccc(N2CC3(CCOC3)C2)cc1` [Example 54] reads 69 nM; that for `CC(C)(O)C1CCN(c2ccc(NC(=O)C(=O)Nc3ccc(-c4cc5cc(F)c(-c6nnn[nH]6)cc5n4C4(C)CC4)cc3)cc2)CC1` [Example 35], 174 nM; that for `O=C(Nc1ccc(N2CCC3(CCOC3)CC2)cc1)C(=O)NC1CC=C(c2cc3cc(F)c(-c4nnn[nH]4)cc3n2C2CC2)CC1` (stereo not shown) [Example 64], 88 nM.
Consider `O=C(Nc1ccc(-c2cc3cc(F)c(-c4nnn[nH]4)cc3n2C2CCC2)cc1)C(=O)Nc1ccc(N2CC3CC2CO3)cc1` (stereo not shown) [Example 49], for which the IC50 in assay [1] amounted to 133 nM.
Take `N#CC1CCN(c2ccc(NC(=O)C(=O)Nc3ccc(-c4cc5cc(F)c(-c6nnn[nH]6)cc5n4C4CCC4)cc3)cc2)CC1` [Example 22]: in assay [1], the IC50 came to 38 nM and the “SHP2 IC50 times lower than control compound 11a-1” value is recorded as 3-4 times.
In the case of `O=C(Nc1ccc(C2=CCOCC2)cc1)C(=O)Nc1ccc(-c2cc3cc(F)c(-c4nnn[nH]4)cc3n2C2CCC2)cc1` [Example 52], in assay [1], the IC50 worked out at 102 nM.
On to `O=C(Nc1ccc(-c2ccsc2)cc1)C(=O)Nc1ccc(-c2cc3cc(Cl)c(-c4nnn[nH]4)cc3n2C2CCC2)cc1` [Example 5], for which, in assay [1], the IC50 is 105 nM.
On to `CC1(O)CCC2(CN(c3ccc(NC(=O)C(=O)Nc4ccc(-c5cc6cc(F)c(-c7nnn[nH]7)cc6n5C5(C)CCC5)cc4)cc3)C2)C1` (stereo not shown) [Example 80], for which, in assay [1], the IC50 worked out at 36 nM and the “SHP2 IC50 times lower than control compound 11a-1” value is 3-4 times.
